Test results taken from patent US9526737B2, “Oxysterols for activation of hedgehog signaling, osteoinduction, antiadipogenesis, and Wnt signaling” (THE REGENTS OF THE UNIVERSITY OF CALIFORNIA, priority 2007, dated 2016).
Where two headings read alike, the source gives them in different places.

Key:
[1] = tested on: hedgehog signaling pathway; experiment: Hedgehog signaling pathway activation (8X-Gli reporter, Gli 1 and Patched Q-RT-PCR, cyclopamine inhibition); format: cell-based; conditions: M2 cells
Protocol: M2-10B4 bone marrow stromal cells were transfected with an 8XGli luciferase reporter or the empty vector (pGL3b). Cells were subsequently treated with control vehicle, 5 μM Oxy49, or 400 ng/ml recombinant human sonic hedgehog (Shh) as positive control. After 48 hours of treatments, reporter luciferase activity was measured and normalized to Renilla luciferase activity (See FIG. 14). […] M2-10B4 bone marrow stromal cells were transfected with an 8XGli luciferase reporter or the empty vector (pGL3b). Cells were subsequently treated with control vehicle, 5 μM Oxy34, or 400 ng/ml recombinant human sonic hedgehog (Shh) as positive control. After 48 hours of treatments, reporter luciferase activity was measured and normalized to Renilla luciferase activity (See FIG. 15). […] After 48 hours of treatments, mRNA was extracted from cells and analyzed by Q-RT-PCR for expression of hedgehog target genes Gli 1 and Patched (See FIGS. 16A and 16B). […] Luciferase reporter activity using a reporter construct with 8X-Gli binding sites • 2. Q-RT-PCR analysis of the induction of hedgehog pathway target gene expression Gli 1 and Patched • 3.

[2] = tested on: M2-10B4 marrow stromal cells; experiment: 45Ca incorporation assay (matrix mineralization); format: cell-based; conditions: M2-10B4 cells treated for 14 days
Protocol: ^45Ca incorporation assay as a measure of matrix mineralization in cell monolayers was performed as previously described (45).
^45Ca incorporation assay (see Example above) was used to measure mineralization in M2 cells pre-treated with 1 μg/ml Dkk-1 or vehicle for 2 h, and then treated with control vehicle or 2.5 μM SS 12 days (See FIG. 2D).
^45Ca incorporation assay was used to measure mineralization in M2 cells pre-treated with various doses of LY, 1 μM Wm, or vehicle for 2 h, and then treated with 5 μM SS or control vehicle for 14 days (See FIG. 7C).
M2-10B4 cells were treated for 14 days with control vehicle (C) or various concentrations (μM) of oxysterols as indicated. SS refers to 20S-hydroxycholesterol+22S-hydroxycholesterol in combination. After 12 days with refeeding every 5th day, ^45Ca was added and on day 14, ^45Ca incorporation was measured (See FIG. 18).

[3] = tested on: bone sialoprotein (BSP) mRNA expression; experiment: Q-RT-PCR for bone sialoprotein (BSP) mRNA expression; format: cell-based; conditions: M2-10B4 cells
Protocol: Total RNA was extracted with the RNA isolation kit from Stratagene (La Jolla, Calif.) according to the manufacturer's instructions. RNA was DNase-treated using the DNA-free kit from Ambion, Inc. (Austin, Tex.). 3 μg of RNA was reverse-transcribed using reverse transcriptase from Stratagene (La Jolla, Calif.) to make single stranded cDNA. The cDNAs were mixed with Qi SYBR Green Supermix from Bio-Rad Laboratories (Hercules, Calif.) for quantitative RT-PCR using a Bio-Rad I-cycler IQ quantitative thermocycler. All PCR samples were prepared in triplicate or quadruplicate. Each sample was added to duplicate wells of a 96-well plate. After 40 cycles of PCR, melt curves were analyzed in order to ensure primer specificity, and the identity of all PCR products were verified by sequencing and comparing with the complete mRNA sequence obtained from PubMed's GenBank. Fold changes in gene expression were calculated using the ΔΔCt method (14). […]
M2-10B4 cells were treated with control vehicle (C) or various doses (μM) of oxysterols (Oxy34 or Oxy49) as indicated. […] After 6 days of treatments, mRNA was extracted from cells and analyzed by Q-RT-PCR for BSP and GAPDH expression (See FIG. 17).
After 48 hours of treatment, RNA was isolated and analyzed for BSP expression by Q-RT-PCR as a measure of osteogenic differentiation (See FIG. 10). […]

marrow stromal cells = experiment: Osteoinductive properties (osteoblast differentiation markers: ALP activity, osteocalcin mRNA, mineralization); format: cell-based; conditions: induction of osteoblast differentiation markers
Source text: Oxysterols discussed in this application include those designated as Oxy22, Oxy26, Oxy27, Oxy28, Oxy39, Oxy40, Oxy41, Oxy42, Oxy48, Oxy49, Oxy20, Oxy34, Oxy36, Oxy38, Oxy50, Oxy51, Oxy52, and Oxy53. At least the following oxysterols have been identified as osteoinductive: Oxy22, Oxy26, Oxy27, Oxy28, Oxy39, Oxy40, Oxy41, Oxy42, Oxy48, Oxy49, Oxy50, Oxy51, Oxy52, and Oxy53. The osteoinductive properties of these oxysterols is shown by their ability to induce the expression of various osteoblast differentiation markers, including alkaline phosphatase activity, osteocalcin mRNA expression, and mineralization. These oxysterols are activators of the hedgehog signaling pathway.

[4] = tested on: M2-10B4 marrow stromal cells; experiment: Alkaline phosphatase (ALP) activity assay; conditions: M210B4, 72 h
Protocol: The protocol is a modification of alkaline phosphatase assay kit from Sigma. Cells are cultured in 24-well tissue culture plates. After treatments with test agents, cells are rinsed twice with PBS and scraped into 200 ml of lysis buffer (0.2% NP-40 in 1 mM MgCl2) and sonicated for 10 seconds. Next, 1 ml of reaction mixture is added to each well. Reaction mixture is 221 alkaline buffer (Sigma): stock substrate solution (1:1). Stock substrate solution is prepared by dissolving 40 mg of Sigma 104 phosphatase substrate in 10 ml of ddH2O. After addition of reaction mixture to lysed cells, incubation is performed for 30 minutes at 37 C. […] The reaction is stopped by the addition of 12 ml of 1N NaOH to each well, and absorbance is determined at 405 nm. Alkaline phosphatase activity is calculated using p-nitrophenol as a standard, according to Sigma kit's instructions. Results are normalized to total protein in each well determined using the Bio-Rad protein assay solution (Bio-Rad Laboratories).
M2-10B4 marrow stromal cells were treated with oxysterols at various doses for 3 days after which they were collected and analyzed by calorimetric assay for alkaline phosphatase activity (a marker of osteoblastic differentiation) (Table 1); the alkaline phosphatase assay described above was used.
M2-10B4 marrow stromal cells were treated with oxysterols at various doses for 3 days after which they were collected and analyzed by colorimetric assay for alkaline phosphatase activity (a marker of osteoblastic differentiation) (Table 2); the alkaline phosphatase assay described above was used.
M2-10B4 bone marrow stromal cells were treated in culture with control vehicle (C) or various oxysterol (Oxy) molecules as indicated at either 1.25 (1) or 2.5 (2) μM concentrations. After 3 days of treatment, alkaline phosphatase activity as a measure of early osteogenic differentiation of cells was measured in whole cell lysates (See FIG. 9 and Table 3); the alkaline phosphatase assay described above was used.

[5] = read-out: Fold Induction in alkaline phosphatase activity compared to control untreated cells
[6] = read-out: Fold Induction in alkaline phosphatase activity over control untreated cells

Compound | Inhibition of oxysterol-induced hedgehog pathway activation [1] | Mineralization (45Ca incorporation) [2] | BSP expression [3] | Osteoinductive property (marrow stromal cells) | fold induction at 2.5 µM [4, 5] | fold induction at 5 µM [4, 5] | fold induction at 1.25 µM [4, 6] | fold induction at 2.5 µM [4, 6]
COC[C@H]1OC(=O)c2coc3c2[C@@]1(C)C1=C(C3=O)[C@@H]2CCC(=O)[C@@]2(C)C[C@H]1OC(C)=O [Wm, wortmannin] | did not inhibit | – | – | – | – | – | – | –
C=C(C)CCC[C@](C)(O)[C@H]1CC[C@H]2[C@@H]3C[C@H](O)[C@H]4C[C@@H](O)CC[C@]4(C)[C@H]3CC[C@@]21C [Oxy49, (3S,5S,6S,8R,9S,10R,13S,14S,17S)-17-((S)-2-Hydroxy-6-methylhept-6-en-2-yl)-10,13-dimethylhexadecahydro-1H-cyclopenta[a]phenanthrene-3,6-diol] | – | increased mineralization | induce BSP expression | osteoinductive | 170 | 204 | 46 | 68
